Experimental data reported in patent US11180482B2, “Anilinopyrimidines as haematopoietic progenitor kinase 1 (HPK1) inhibitors” (Ariad Pharmaceuticals, Inc., priority 2016, dated 2021).

biological target: Wild Type HPK1 (MAP4K1) Kinase (Homo sapiens (Human), UniProt Q92918); experiment: HPK1 Assay (Caliper EZ reader, fluorescein tagged peptide substrate); type: biochemical; conditions: ATP 500 micromolar, kinase 6 nM, pH 7.4
Description: The enzymatic activity of Wild Type HPK1 (MAP4K1) Kinase was measured in the presence or absence of an inhibitor compound of the present disclosure by preparation of a reaction mixture containing a fluorescein tagged peptide (2 micromolar final concentration), ATP (Adenosine Triphosphate, 500 micromolar final concentration) and Wild Type kinase (6 nM final concentration) in a buffer system comprising 50 mM HEPES (Buffer), 3 mM MgCl2, 5% w/v Trehalose, 0.01% Brij 35 (Detergent), 0.1% Pluronic F127 (Surfactant), 0.1 mM EDTA (Ethylenediaminetetraacetic acid), 0.1 mM EGTA (ethylene glycol-bis(β-aminoethyl ether)-N,N,N′,N′-tetraacetic acid) and 1 mM DTT (Dithiothreitol) and at a pH of 7.4. The reactions were quenched by the addition of EDTA to a final concentration of 25 mM. A Caliper EZ reader was used to measure the extent of substrate to product conversion.
The peptide substrate used in the HPK1 assay was designed based on the amino acid sequence surrounding serine residue 376 of SLP76-Lymphocyte cytosolic protein 2 (a known intracellular substrate of HPK1). This sequence SSFPQSAsLPPYFSQ was modified as follows for use in Caliper assays of HPK1: the serine residues on either side of serine 376 were replaced with alanine, three lysine residues were added at the […] and a fluorescein tag (FAM) was attached to the […] to produce the sequence, FAM-FPQAAsLPPYFAKKK.

Sequence of Wild Type HPK1 (MAP4K1) Kinase (Q92918 whole entry, species assumed): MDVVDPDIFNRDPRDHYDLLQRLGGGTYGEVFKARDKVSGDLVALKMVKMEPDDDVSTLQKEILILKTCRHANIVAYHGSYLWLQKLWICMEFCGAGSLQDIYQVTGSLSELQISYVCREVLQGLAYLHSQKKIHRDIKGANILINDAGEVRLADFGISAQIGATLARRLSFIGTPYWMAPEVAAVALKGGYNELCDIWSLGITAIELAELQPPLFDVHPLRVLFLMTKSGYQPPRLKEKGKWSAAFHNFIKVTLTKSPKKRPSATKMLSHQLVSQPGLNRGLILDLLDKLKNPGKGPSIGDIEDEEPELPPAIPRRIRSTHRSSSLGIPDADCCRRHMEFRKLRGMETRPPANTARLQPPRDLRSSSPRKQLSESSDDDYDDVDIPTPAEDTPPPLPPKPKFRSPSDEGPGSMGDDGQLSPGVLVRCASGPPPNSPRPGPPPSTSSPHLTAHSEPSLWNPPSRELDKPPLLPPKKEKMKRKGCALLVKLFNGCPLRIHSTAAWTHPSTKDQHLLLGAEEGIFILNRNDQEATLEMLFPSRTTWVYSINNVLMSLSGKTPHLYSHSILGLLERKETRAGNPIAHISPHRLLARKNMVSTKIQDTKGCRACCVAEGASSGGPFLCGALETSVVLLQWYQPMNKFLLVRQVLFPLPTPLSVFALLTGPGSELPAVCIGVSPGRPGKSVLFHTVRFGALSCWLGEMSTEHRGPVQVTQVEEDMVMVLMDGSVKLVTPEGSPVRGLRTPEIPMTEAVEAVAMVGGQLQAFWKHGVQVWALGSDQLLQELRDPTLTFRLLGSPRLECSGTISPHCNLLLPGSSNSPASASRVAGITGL

| SMILES | IC50 [nM] |
| --- | --- |
| CCP(=O)(CC)c1ccccc1Nc1nc(Nc2cc3c(cc2OC)CCN(C)C3)ncc1Cl [Example I-19, (2-((5-chloro-2-((6-methoxy-2-methyl-1,2,3,4-tetrahydroisoquinolin-7-yl)amino)pyrimidin-4-yl)amino)phenyl)diethylphosphine oxide] | < 5 |
| COc1c(Nc2ncc(Cl)c(Nc3ccccc3P(C)(C)=O)n2)cc2c(c1N)CC1CCCCN1C2 (stereo not shown) [Example I-9, N^8-[5-chloro-4-(2-dimethylphosphorylanilino)pyrimidin-2-yl]-9-methoxy-2,3,4,6,11,11a-hexahydro-1H-benzo[b]quinolizine-8,10-diamine] | 10 to 100 |
| C=Cc1cnc(Nc2cc3c(cc2OC)CCN(C)C3)nc1Nc1ccccc1P(C)(C)=O [Example I-46, (2-((2-((6-Methoxy-2-methyl-1,2,3,4-tetrahydroisoquinolin-7-yl)amino)-5-vinylpyrimidin-4-yl)amino)phenyl)dimethylphosphine oxide] | < 5 |
| COc1cc2c(cc1Nc1ncc(Cl)c(Nc3ccccc3P(C)(C)=O)n1)CN(C)CC2 [Example I-2, (2-((5-chloro-2-((6-methoxy-2-methyl-1,2,3,4-tetrahydroisoquinolin-7-yl)amino)pyrimidin-4-yl)amino)phenyl)dimethylphosphine oxide] | < 5 |
| CCP(=O)(CC)c1ccccc1Nc1nc(Nc2cc3c(cc2Cl)CCN(C)C3)ncc1Cl [Example I-20, (2-((5-chloro-2-((6-chloro-2-methyl-1,2,3,4-tetrahydroisoquinolin-7-yl)amino)pyrimidin-4-yl)amino)phenyl)diethylphosphine oxide] | < 5 |
| COc1cc2c(cc1Nc1ncc(Cl)c(Nc3ccccc3P(C)(C)=O)n1)CN(C)CC2(C)C [Example I-44, (2-((5-chloro-2-((6-methoxy-2,4,4-trimethyl-1,2,3,4-tetrahydroisoquinolin-7-yl)amino)pyrimidin-4-yl)amino)phenyl)-dimethylphosphine oxide] | 5 to 10 |
| CCN1CCc2cc(OC)c(Nc3ncc(Cl)c(Nc4ccccc4P(C)(C)=O)n3)cc2C1 [Example I-12, (2-((5-chloro-2-((2-ethyl-6-methoxy-1,2,3,4-tetrahydroisoquinolin-7-yl)amino)pyrimidin-4-yl)amino)phenyl)dimethylphoshine oxide] | < 5 |
| COc1cc2c(cc1Nc1ncc(Cl)c(Nc3ccccc3P(C)(C)=O)n1)[C@@H](N(C)C)CC2 [Example I-16, (S)-(2-((5-chloro-2-((3-(dimethylamino)-6-methoxy-2,3-dihydro-1H-inden-5-yl)amino)pyrimidin-4-yl)amino)phenyl)dimethylphosphine oxide] | 100 to 10000 |
| COc1cc2c(cc1Nc1ncc(Cl)c(Nc3ccccc3P(C)(C)=O)n1)CNCC2(C)C [Example I-40, (2-((5-chloro-2-((6-methoxy-4,4-dimethyl-1,2,3,4-tetrahydroisoquinolin-7-yl)amino)pyrimidin-4-yl)amino)phenyl)dimethylphosphine oxide] | < 5 |
| COc1cc2c(cc1Nc1ncc(Br)c(Nc3ccccc3P(C)(C)=O)n1)CN(C)CC2 [Example I-22, (2-((5-bromo-2-((6-methoxy-2-methyl-1,2,3,4-tetrahydroisoquinolin-7-yl)amino)pyrimidin-4-yl)amino)phenyl)dimethylphosphine oxide] | < 5 |
| COc1cc2c(cc1Nc1ncc(Cl)c(Nc3ccccc3S(=O)(=O)N(C)C)n1)CN(C)CC2 [II-2, 2-((5-chloro-2-((6-methoxy-2-methyl-1,2,3,4-tetrahydroisoquinolin-7-yl)amino)pyrimidin-4-yl)amino) N,N-dimethylbenzenesulfonamide] | < 5 |
| COc1cc2c(cc1Nc1ncc(Cl)c(Nc3ccccc3P(C)(C)=O)n1)CN(C(C)C)CC2 [Example I-11, (2-((5-chloro-2-((2-isopropyl-6-methoxy-1,2,3,4-tetrahydroisoquinolin-7-yl)amino)pyrimidin-4-yl)amino)phenyl)dimethylphosphine oxide] | < 5 |
| COc1cc2c(cc1Nc1ncc(Cl)c(Nc3ccccc3P(C)(C)=O)n1)CCNC2 [Example I-38, (2-((5-chloro-2-((7-methoxy-1,2,3,4-tetrahydroisoquinolin-6-yl)amino)pyrimidin-4-yl)amino)phenyl)dimethylphosphine oxide] | < 5 |

Continued, values first:

| IC50 [nM] | SMILES |
| --- | --- |
| < 5 | CN1CCc2cc(F)c(Nc3ncc(Cl)c(Nc4ccccc4P(C)(C)=O)n3)cc2C1 [Example I-5, (2-((5-chloro-2-((6-fluoro-2-methyl-1,2,3,4-tetrahydroisoquinolin-7-yl)amino)pyrimidin-4-yl)amino)phenyl)dimethylphosphine oxide] |
| 10 to 100 | CP(C)(=O)c1ccccc1Nc1nc(Nc2cc3c(cc2C(F)(F)F)CCNC3)ncc1Cl [Example I-37, (2-((5-Chloro-2-((6-(trifluoromethyl)-1,2,3,4-tetrahydroisoquinolin-7-yl)amino)pyrimidin-4-yl)amino)phenyl)dimethylphosphine oxide] |
| 10 to 100 | COc1cc2c(cc1Nc1ncc(Cl)c(Nc3ccccc3P(C)(C)=O)n1)CN(C1COC1)CC2 [Example I-42, (2-((5-Chloro-2-((6-methoxy-2-(oxetan-3-yl)-1,2,3,4-tetrahydroisoquinolin-7-yl)amino)pyrimidin-4-yl)amino)phenyl)dimethylphosphine oxide] |
| 100 to 10000 | CN1CCc2cc(C(F)(F)F)c(Nc3ncc(Cl)c(Nc4ccccc4P(C)(C)=O)n3)cc2C1 [Example I-45, (2-((5-chloro-2-((2-methyl-6-(trifluoromethyl)-1,2,3,4-tetrahydroiso-quinolin-7-yl)amino)-pyrimidin-4-yl)-amino)phenyl)dimethylphosphine oxide] |
| 5 to 10 | CCc1cc2c(cc1Nc1ncc(Cl)c(Nc3ccccc3P(C)(C)=O)n1)CN(C)CC2 [Example I-7, 5-chloro-N^4-(2-dimethylphosphorylphenyl)-N^2-(6-ethyl-2-methyl-3,4-dihydro-1H-isoquinolin-7-yl)pyrimidine-2,4-diamine] |
| 10 to 100 | COc1cc2c(cc1Nc1ncc(Cl)c(Nc3ccccc3P(C)(C)=O)n1)CCCN(C)C2 [Example I-4, (2-((5-chloro-2-((8-methoxy-2-methyl-2,3,4,5-tetrahydro-1H-benzo[c]azepin-7-yl)amino)pyrimidin-4-yl)amino)phenyl)dimethylphosphine oxide] |
| 5 to 10 | C=Cc1cc2c(cc1Nc1ncc(Cl)c(Nc3ccccc3P(C)(C)=O)n1)CN(C)CC2 [Example I-8, 5-chloro-N^4-(2-dimethylphosphorylphenyl)-N^2-(2-methyl-6-vinyl-3,4-dihydro-1H-isoquinolin-7-yl)pyrimidine-2,4-diamine] |
| 5 to 10 | COc1cc2c(cc1Nc1ncc(Cl)c(Nc3ccccc3P(C)(C)=O)n1)[C@H](N(C)C)CC2 [Example I-14, (R)-(2-((5-chloro-2-((3-(dimethylamino)-6-methoxy-2,3-dihydro-1H-inden-5-yl)amino)pyrimidin-4-yl)amino)phenyl)dimethylphosphine oxide] |
| 10 to 100 | COc1cc2c(cc1Nc1ncc(F)c(Nc3ccccc3P(C)(C)=O)n1)CN(C)CC2 [Example I-26, (2-((5-fluoro-2-((6-methoxy-2-methyl-1,2,3,4-tetrahydroisoquinolin-7-yl)amino)pyrimidin-4-yl)amino)phenyl)dimethylphosphine oxide] |
